From patent US11426444B2, “Compositions, methods and uses for treating post-traumatic stress disorder” (priority 2017, dated 2022) come the findings set out here.

Ends that are not written are not given here.

The test system of assay [1] is Male adult Sprague-Dawley rats. The assay can be described thus: Modified Open Field Test with noise pollution (Example 1). It counts as in vivo, rat. From the text:
Male adult Sprague-Dawley rats (˜350 g) treated for 3 months (1 injection/week) with either vehicle (0.9% saline) or TCAP-1 (25 nmoles/kg) were used in Example 1.
Behaviour—Modified Open Field Test
The Open Field Test is a behavioral test paradigm used to investigate anxiety-related behaviours in rodents (Bailey K R and Crawley J N, 2009, in: Buccafusco J J, editor. Source Methods of Behavior Analysis in Neuroscience. 2nd edition. Boca Raton (Fla.): CRC Press/Taylor & Francis; 2009. Chapter 5.). In this experiment, the animals were exposed to high frequency noise pollution to induce a stress response while the animals were in the OFT apparatus. The test was performed one week post last injection of the long-term (3 month) treatment with either vehicle (0.9% saline) or TCAP-1 (25 nmoles/kg). Animals were individually placed in a plexiglass box (50 L×50 W) and digitally recorded and tracked for five (5) minutes. In the centre of the box is a designated section termed the centre zone. Behaviours are then analyzed from videos and recorded for time spent in centre zone, distance travelled in centre zone, and total distance travelled. Moreover, peering behaviour, grooming behaviour, and rearing behaviour were also analyzed (definitions below).
(a) Peering: Digital recordings were analyzed for Peering behaviour. Peering behaviour was defined as the specific notion where animals would stand on their back hind limbs in order to look over the side of the glass wall (i.e, The event where an animal rears specifically to peer over the side of the apparatus). This behaviour can be interpreted as an explorative or anti-fear response.
(b) Grooming: Digital recordings were analyzed for Grooming behaviour. Grooming behaviour was defined as the animals cleaning their face or bodies, i.e., the event where an animal grooms himself (usually his hands and face).
(c) Rearing: Digital recordings were analyzed for Rearing behaviour. Rearing behaviour was defined as an event where animals stand on their hind limbs (i.e., the event where an animal gets on his hind limbs in exploration). This behaviour is interpreted as an explorative behaviour, which is a low anxiety response.
Animals were digitally recorded and tracked for five (5) minutes in the Open Field Test with noise pollution. The noise pollution was large construction noise, intermittent and not at predictable intervals. […] As rearing behaviour is highly associated with anti-anxious behaviour, this corroborates the data indicating TCAP-1 is reducing stress-related behaviour.

Another assay has as its system Sprague-Dawley rat (SD). Description: Restraint stress model, corticosterone (Example 7, FIG. 14 B). Format: in vivo. As to conditions: amidated human TCAP-1 (SEQ ID NO: 2); restraint 30-60 minutes on successive days; dosed at day 1 and day 2; effect within 3 days. From the text: Amidated mouse TCAP-1 (SEQ ID NO: 1) was suspended in 0.9% saline. [[…], Ambiopharm] for subcutaneous injection in the interscapular region and used in Examples 1, Amidated human TCAP-1 (SEQ ID NO: 2) was suspended in 0.9% saline. [10 nmol/Kg, Ambiopharm] was used in Example 7, for the SD-rat (FIG. 14 B).
(§1) The inventors, extended the behavioural activity in a severe restraint model the changes in a stress related biomarker such as corticosterone is depicted in FIG. 14. (See for example de Pablos, R. N. et al (2014), Creating a Rat model of Chronic Variate Stress. Bio-protocol 4(23): e1315.DOI).
(§2) In this model animals, Swiss Webster mice (SW) (FIG. 14 A) and Sprague-Dawley rat (SD) (FIG. 14 B) were restrained in confined spaces for upwards of 30-60 minutes on successive days. TCAP-1 was administered once at day 1 and at day 2 in the 5-day model.

The subject of assay [2] is C57Bl/6J mice. Description: Open field motor activity (OF) after CSD (Example 4). Format: in vivo, mouse. As to conditions: 15 min open field. How it is done:
(§3) The mouse chronic social defeat (“CSD”) model has been accepted as a model of PTSD [Flandreau, et al, 2018]. This model involves exposure of C57Bl/6J mice to chronic stress by aggressor mice (male CD-1 ex-breeders) for a defined period of 15 days. Starting from day 15, mice were further tested in the open field (OF) model.
Behavioral tests such as Open field motor activity (OF) were also conducted. See the schematic of FIG. 7.
In this model set up the test was conducted 15 days after the last CSD session. The mouse was placed on the Open Field apparatus floor in the center of empty arena for 15 min without exposure to any other stimuli. The following parameters were calculated from the data: distance moved, number of vertical rearing's, velocity and % resting time (no movement activity). Open field activity chambers (Med Associates Inc, St Albans, Vt.; 27×27×20.3 cm) are equipped with IR beams with red light conditions. A mouse is considered to have no movement activity when the mouse is not breaking two adjacent beams consecutively (distance between two adjacent beams is about 1.7 cm).

The subject of assay [3] is C57Bl/6J mice. Description: Chronic social defeat (CSD) model (Example 3). Format: in vivo, mouse. Particulars: subcutaneous once a day days 1-7; for attack latency (time between retreat and evaluating the predator): FIG. 8.
Text: as §3
Experimental Set Up of Mice.
CD-1 mice were housed, one mouse per cage, during the experiments. C57Bl/6J mice were housed in pairs while not subjected to CSD. Mice are acclimated to the animal facility for minimum 5 days before the onset of the study.
CD-1 aggressor mice are determined by using the procedures by Golden et al. (2011). Screening involves three days of selection testing. After the screening and selection of 80 aggressor mice, the chronic social defeat (CSD) paradigm was conducted.
The CSD mouse group were subcutaneously injected once a day with vehicle or TCAP-1 days 1-7.
Under dim lighting a CSD mouse was subjected to direct exposure with a CD-1 aggressor mouse. […] The latency to the first attack was also recorded, and time needed to gain 60 s physical attack time. After the 10 min session, CSD mice were exposed to CD-1 mice through perforated transparent divider for 24 h. If the CD-1 mice are very aggressive (if wounding consistently exceeds veterinary guidelines), the exposure time can be shortened to 5 min or less.
This setup allows direct and continued olfactory, visual, auditory exposure for the rest of the day. On the following day, a CSD mouse is placed in a cage in similar fashion with 10 min direct exposure followed by chronic exposure through divider. Cycle is repeated for 15 days, replacing the […] with a new one every day until day 15. Thereafter, CSD mice remain caged next to the same CD-1 mice without any further attack sessions or rotations for days 16-17.
Attack latency is the period between retreat and confrontation. […] Aggressive contact time reflects the number of direct contacts. FIG. 9 illustrates that administration of TCAP-1, the animal will approach the predator and not retreat.

The next assay deals with Swiss Webster mice. Description: Naloxone-precipitated morphine withdrawal, CRH driven rodent model 1 (Example 5). It counts as in vivo, mouse. How it is done:
In one model, Swiss Webster mice were stressed following chronic opiate administration.
In this Example, TCAP-1 was administered at the graded doses, daily for three days prior to administration of morphine. Morphine was then administered at 3.2 mg/kg i.p. on day 4 (5 times) and 5 (twice), and then one hour the last dose of morphine, naloxone is administered i.p at 10 mg/kg, to induce withdrawal.
One hour after last morphine treatment (i.e. after administration of Naloxone) the mice were immediately placed individually in an observation area and video recorded 20 minutes. The number of jumps (lifting of all feet off the ground) documented for 20 minutes

For another assay, the system named is Swiss Webster mice (SW). The assay can be described thus: Restraint stress model, corticosterone (Example 7, FIG. 14 A). It counts as in vivo, mouse. As to conditions: restraint 30-60 minutes on successive days; dosed once at day 1 and day 2; effect in 5 days. How it is done: as §1, §2
The subject of a further assay is Male, Swiss Webster mice. Description: Naloxone-precipitated morphine withdrawal, CRH driven rodent model 2 (Example 6). Format: in vivo, mouse. How it is done:
A similar study was performed using a CRH antagonist (CP154, 526) in the precipitated withdrawal model.
Male, Swiss Webster mice were treated with seven (7) doses of Morphine 3.2 mg/kg i.p. (d1×5 and d2×2). Animals were then administered a test substance subcutaneously one hour after the last morphine injection with either: (i) nothing (morphine only); (ii) CRH antagonist (CP154, 526) or (iii) TCAP-1 and then an hour after the test substance the animals were administered naloxone i.p at 10 mg/kg, to induce withdrawal.
Two hours after last morphine treatment (i.e. after administration of Naloxone) the mice were immediately placed individually in an observation area and video recorded 20 minutes. The number of jumps (lifting of all feet off the ground) documented for 20 minutes.
(For description on CP154, 526 see for example, CNS Drug Reviews, Vol. 9, No. 1, pp 57-96, Seymour, Patricia A., et al, “The Pharmacology of CP-154,526, A Non-Peptide Antagonist of the CRH1 Receptor: A Review, incorporated herein by reference.)

Where [4] appears, read: 25 nmoles/kg, 1 injection/week for 3 months, 5 min, vs vehicle.

For the compound “Teneurin C-Terminal Associated Peptide-1 (QQLLGTGRVQGYDGYFVLSVEQYLELSDSANNIHFMRQSEI-NH2; not fully specified) [TCAP-1]”, in assay [1] (25 nmoles/kg, 1 injection/week for 3 months, tested one week post last injection, 5 min, vs vehicle), the “time in the centre zone” value was “significantly more time in the centre zone”. Also, in assay [1] (setting [4]), the “entries into centre zone” value was “more entries into centre zone”, the grooming behaviour result is reported as “not found to be significantly different between groups”, the peering behaviour result is “not found to be significantly different between groups” and the rearing behaviour result was “significantly increased”. The “stress-related behaviour in the Open Field Test with noise pollution” value in assay [1] (chronic TCAP-1 administration) is given as “significantly decreased stress-related behaviour”. Also, the rise in corticosterone result in the assay on Sprague-Dawley rat (SD) is reported as “modulated the rise in corticosterone”. Moreover, the anxiety toward surroundings entry with C57Bl/6J mice [2] was “reduced anxiety toward their surroundings”. In the assay on C57Bl/6J mice [2] (FIG. 10), the “number of vertical rearings” value was “reduced rearing events were observed”. In addition, the “attack latency (time between retreat and evaluating the predator)” value in the assay on C57Bl/6J mice [3] is “attack latency increased”. Besides, the “attack latency (time between retreat and evaluating the predator)” value in the assay with C57Bl/6J mice [3] (listed as TCAp-1) was “reduces the time between retreat and evaluating the predator”. In the assay with C57Bl/6J mice [3] (FIG. 9), the “aggressive contact time (number of direct contacts)” value is reported as “increased”. The “jumping activity (number of jumps per 20 minutes) following naloxone” value in the assay on Swiss Webster mice (graded doses daily for three days prior to morphine 3.2 mg/kg i.p., naloxone 10 mg/kg i.p., FIG. 12) is recorded as “dose dependent reduction in jumping activity”. Besides, the “symptomology of precipitated withdrawal” value with Swiss Webster mice (mice stressed following chronic opiate administration) was “efficiently modulated”. For the same compound, the rise in corticosterone result in the assay on Swiss Webster mice (SW) is recorded as “modulated the rise in corticosterone”. Further, in the assay on Male, Swiss Webster mice (TCAP-1 250 nmole/Kg subcutaneously one hour after last morphine, versus CP154, 526 at 20 mg/Kg, FIG. 13), the “number of jumps per 20 minutes after naloxone” value is “efficacy”.
Turning to `CCCCN(CC)c1nc(C)nc2c1c(C)cn2-c1c(C)cc(C)cc1C` [CP154, 526, reference compound], in the assay on Male, Swiss Webster mice (small molecule CRH antagonist, 20 mg/Kg subcutaneously), the “symptomology of precipitated withdrawal” value was “limited success”.
